According to US8865756B2, “Inhibitors of HCV NS5A” (Presidio Pharmaceuticals, Inc., priority 2008, dated 2014):

These molecules were tested on HCV 1b_Huh-Luc/Neo-ET cell line persistently expressing a bicistronic genotype 1b replicon in Huh 7 cells (assay: HCV replicon assay (luciferase readout)). Conditions: Hepatitis C virus, Huh-7, 72 h, read-out: Inhibition of HCV genotype 1b.
Type: cell-based
Summary of the method: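 EC50, determined repeatedly, comes from a four-parameter logistic fit of luciferase signal as percent of untreated control. Readout follows 72 h compound exposure, in triplicate, of the HCV 1b_Huh-Luc/Neo-ET replicon line.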

SMILES | EC50
CNC(=O)N[C@@H](C(=O)N1CCC[C@H]1c1ncc(-c2ccc(C#Cc3ccc(-c4cnc([C@@H]5CCCN5C(=O)[C@H](NC(=O)NC)c5ccccc5)[nH]4)cc3)cc2)[nH]1)c1ccccc1 [Compound 162] | < 1 nM
COC(=O)N[C@@H](C(=O)N1CCC[C@H]1c1ncc(-c2ccc(C#Cc3ccc(-c4cnc([C@@H]5CCCN5C(=O)Cc5cccnc5)[nH]4)cc3)cc2)[nH]1)c1ccccc1 [Compound 181] | < 1 nM
CC(C)(C)OC(=O)N1CCC[C@H]1c1ncc(C#Cc2ccc(-c3cnc([C@@H]4CCCN4C(=O)OC(C)(C)C)[nH]3)cc2)[nH]1 [Compound 101] | 10 to 999 nM
CN(C)[C@@H](C(=O)N1CCC[C@H]1c1ncc(-c2ccc(C#Cc3ccc(-c4cnc([C@@H]5CCCN5C(=O)[C@H](NS(C)(=O)=O)c5ccccc5)[nH]4)cc3)cc2)[nH]1)c1ccccc1 [Compound 228] | < 1 nM
COC(=O)N[C@@H](C(=O)N1CCC[C@H]1c1ncc(-c2ccc(C#Cc3ccc(-c4cnc([C@@H]5CCCN5C(=O)[C@H](NC(=O)[C@@H]5CCCN5)c5ccccc5)[nH]4)cc3)cc2)[nH]1)c1ccccc1 [Compound 206] | < 1 nM
CS(=O)(=O)N[C@@H](C(=O)N1CCC[C@H]1c1ncc(-c2ccc(C#Cc3ccc(-c4cnc([C@@H]5CCCN5C(=O)[C@@H](c5ccccc5)N5CCCCC5)[nH]4)cc3)cc2)[nH]1)c1ccccc1 [Compound 231] | < 1 nM
COC(=O)N[C@@H](C)C(=O)N1CCC[C@H]1c1ncc(-c2ccc(C#Cc3ccc(-c4cnc([C@@H]5CCCN5C(=O)[C@H](NC(=O)OC)c5ccccc5)[nH]4)cc3)cc2)[nH]1 [Compound 1004] | < 1 nM
COC(=O)N[C@H](C(=O)N1CCC[C@H]1c1ncc(-c2ccc(C#Cc3ccc4nc([C@@H]5CCCN5C(=O)[C@@H](C(C)C)N(C)C)[nH]c4c3)cc2)[nH]1)C(C)C [Compound 1020] | < 1 nM
CN1CCN(C(=O)N[C@@H](C(=O)N2CCC[C@H]2c2ncc(-c3ccc(C#Cc4ccc(-c5cnc([C@@H]6CCCN6C(=O)[C@H](NC(=O)N6CCN(C)CC6)c6ccccc6)[nH]5)cc4)cc3)[nH]2)c2ccccc2)CC1 [Compound 159] | < 1 nM
COC(=O)N[C@@H](C(=O)N1CCC[C@H]1c1ncc(C#Cc2ccc(-c3ccc(-c4cnc([C@@H]5CCCN5C(=O)[C@@H](c5ccccc5)N5CCCC5)[nH]4)cc3)cc2)[nH]1)c1ccccc1 [Compound 759] | < 1 nM
COC(=O)N[C@@H](C(=O)N1CCC[C@H]1c1ncc(-c2ccc(C#Cc3ccc(-c4cnc([C@@H]5CCCN5C(=O)[C@H](NC(=O)OC)[C@H](C)OC)[nH]4)cc3)cc2)[nH]1)[C@H](C)OC [Compound 977] | 10 to 999 nM
COC(=O)N[C@H](C(=O)N1CCC[C@H]1c1ncc(-c2ccc(C#Cc3ccc(-c4cnc([C@@H]5CCCN5C(=O)[C@@H](c5ccccc5)N5CCCC5)[nH]4)cc3)cc2)[nH]1)C(C)C [Compound 984] | < 1 nM
CC[C@@H](C(=O)N1CCC[C@H]1c1ncc(-c2ccc(C#Cc3ccc(-c4cnc([C@@H]5CCCN5C(=O)[C@H](NC(=O)OC)c5ccccc5)[nH]4)cc3)cc2)[nH]1)c1ccccc1 [Compound 258] | < 1 nM
CC(C)(C)OC(=O)N[C@@H](C(=O)N1CCC[C@H]1c1ncc(C#Cc2ccc(-c3cnc([C@@H]4CCCN4C(=O)[C@H](NC(=O)OC(C)(C)C)c4ccccc4)[nH]3)cc2)[nH]1)c1ccccc1 [Compound 99] | < 1 nM
O=C(N[C@@H](C(=O)N1CCC[C@H]1c1cc(-c2ccc(C#Cc3ccc(-c4cnc([C@@H]5CCCN5C(=O)[C@H](NC(=O)N5CCOCC5)c5ccccc5)[nH]4)cc3)cc2)n[nH]1)c1ccccc1)N1CCOCC1 [Compound 220] | < 1 nM
O=C([C@H](O)c1ccccc1)N1CCC[C@H]1c1ncc(C#Cc2ccc(-c3cnc([C@@H]4CCCN4C(=O)[C@H](O)c4ccccc4)[nH]3)cc2)[nH]1 [Compound 112] | < 1 nM

SMILES | EC50
COC(=O)N[C@@H](C(=O)N1CCC[C@H]1c1ncc(-c2ccc(C#Cc3ccc(-c4cnc([C@@H]5CCCN5C(=O)N5CCOCC5)[nH]4)cc3)cc2)[nH]1)c1ccccc1 [Compound 198] | < 1 nM
COC(=O)N[C@H](C(=O)N1CCC[C@H]1c1nc2c([nH]1)-c1ccc(C#Cc3ccc(-c4cnc([C@@H]5CCCN5C(=O)[C@@H](NC(=O)OC)C5CCOCC5)[nH]4)cc3)cc1CC2)C(C)C [Compound 1091] | < 1 nM
COC(=O)N[C@@H](C(=O)N1CCC[C@H]1c1ncc(-c2ccc(C#Cc3ccc(-c4cnc([C@@H]5CCCN5C(=O)[C@H](NC(=O)N5CCS(=O)(=O)CC5)c5ccccc5)[nH]4)cc3)cc2)[nH]1)c1ccccc1 [Compound 253] | < 1 nM
COC(=O)N[C@@H](C(=O)N1CCC[C@H]1c1ncc(-c2ccc(C#Cc3ccc(-c4cnc([C@@H]5CCCN5C(=O)[C@@H]5CCCO5)[nH]4)cc3)cc2)[nH]1)c1ccccc1 [Compound 186] | < 1 nM
COC(=O)N[C@H](C(=O)N1CCC[C@H]1c1ncc(-c2ccc(C#Cc3ccc4nc([C@@H]5CCCN5C(=O)[C@@H](NC(=O)OC)C5CCCC5)[nH]c4c3)cc2)[nH]1)C1CCCC1 [Compound 1025] | < 1 nM
COC(=O)N[C@H](C(=O)N1CCC[C@H]1c1ncc(C#Cc2ccc(-c3ccc4nc([C@@H]5CCCN5C(=O)[C@@H](NC(=O)OC)C(C)C)[nH]c4c3)cc2)[nH]1)C(C)C [Compound 1084] | < 1 nM
CC1(O)CCC(C(=O)N[C@@H](C(=O)N2CCC[C@H]2c2nc(-c3ccc4cc(C#Cc5cnc([C@@H]6CCCN6C(=O)[C@H](NC(=O)N6CCC(C)(O)CC6)c6ccccc6)[nH]5)ccc4c3)c[nH]2)c2ccccc2)CC1 (stereo partly shown) [Compound 805] | < 1 nM
COC(=O)NC(C(=O)N1CCC[C@H]1c1ncc(-c2ccc(C#Cc3ccc(-c4cnc([C@@H]5CCCN5C(=O)[C@@H](NC(=O)OC)C(C)C)[nH]4)c(F)c3)cc2)[nH]1)C(C)C (stereo partly shown) [Compound 1011] | < 1 nM
COC(=O)N[C@H](C(=O)N1CCC[C@H]1c1nc2ccc(C#Cc3ccc(-c4cnc([C@@H]5CCCN5C(=O)[C@H](NC(=O)OC)c5ccccc5)[nH]4)cc3)cc2[nH]1)C(C)C [Compound 1022] | < 1 nM
COC(=O)N[C@@H](C(=O)N1CCC[C@H]1c1ncc(-c2ccc(C#Cc3ccc(-c4cnc([C@@H]5CCCN5C(=O)c5cccnc5)[nH]4)cc3)cc2)[nH]1)c1ccccc1 [Compound 183] | < 1 nM
C[C@@H]1OC(=O)N[C@H]1C(=O)N1CCC[C@H]1c1ncc(-c2ccc(C#Cc3ccc(-c4cnc([C@@H]5CCCN5C(=O)[C@@H]5NC(=O)O[C@H]5C)[nH]4)cc3)cc2)[nH]1 [Compound 1000] | 10 to 999 nM
CC[C@H](NC(=O)OC)C(=O)N1CCC[C@H]1c1ncc(-c2ccc(C#Cc3ccc(-c4cnc([C@@H]5CCCN5C(=O)[C@H](CC)NC(=O)OC)[nH]4)cc3)cc2)[nH]1 [Compound 960] | < 1 nM
COC(=O)N[C@H](C(=O)N1CCC[C@H]1c1ncc(-c2ccc(C#Cc3ccc4nc([C@@H]5CCCN5C(=O)[C@@H](NC(=O)OC)C5CC5)[nH]c4c3)cc2)[nH]1)C1CC1 [Compound 1029] | < 1 nM
CC(C)OC(=O)N[C@@H](C(=O)N1CCC[C@H]1c1ncc(-c2ccc(C#Cc3ccc(-c4cnc([C@@H]5CCCN5C(=O)[C@H](NC(=O)OC(C)C)c5ccccc5)[nH]4)cc3)cc2)[nH]1)c1ccccc1 [Compound 227] | < 1 nM
COC(=O)N[C@H](C(=O)N1CCC[C@H]1c1ncc(-c2ccc(C#Cc3ccc4nc([C@@H]5CCCN5C(=O)[C@@H](c5ccccc5)N(C)C)[nH]c4c3)cc2)[nH]1)C(C)C [Compound 860] | < 1 nM
